Row | Compound | melting point [°C]
1 | Cl.O=C(NCCC1CC1)c1ccc(N2CCC(Nc3ccccc3C(F)(F)F)CC2)nn1 | 158 to 163
2 | Cl.O=C(NCCCC1CC1)c1ccc(N2CCC(Nc3ccccc3C(F)(F)F)CC2)nn1 | 117 to 121
3 | CCCCCNC(=O)c1ccc(N2CCC(Nc3ccc(F)cc3C(F)(F)F)CC2)nn1.Cl | 136 to 139
4 | O=C(NCCCC1CC1)c1ccc(N2CCC(N3C(=O)C(F)(F)c4ccccc43)CC2)nn1 | 51 to 53

Next, values leading:

Row | melting point [°C] | Compound
5 | 134 to 137 | Cl.O=C(NCCC1CC1)c1ccc(N2CCC(Nc3ccc(F)cc3C(F)(F)F)CC2)nn1
6 | 143 to 147 | Cl.O=C(NCCCC1CC1)c1ccc(N2CCC(Nc3ccc(F)cc3C(F)(F)F)CC2)nn1

Reference: US7951805B2, “Heterocyclic derivatives and their use as mediators of stearoyl-CoA desaturase” (Xenon Pharmaceuticals Inc., priority 2004, dated 2011)
